Experimental findings from US9573987B2 (priority 2011, dated 2017) are described below.

Values joined by “and” are separate entries in the source; they are usually repeats but may differ in a detail not shown here. Equal values may be shown once. *1 amine or outer side, *2 acyl side, *3 side chain or, on linkers, in order; H or OH if unused. Where a SMILES comes first, the peptide text is derived from it. Side-chain parts run from the residue outwards. [ ]: non-standard residue; d: D form. The star is where a group is joined. Phe(4-NH2) = Nc1ccc(C[C@H](N)C(=O)O)cc1; d(εLys) = N[C@H](CCCCN[*:1])C(=O)[*:2]; εLys = N[C@@H](CCCCN[*:1])C(=O)[*:2]; Isobutyryl(2-OH) = CC(C)(O)C(=O)*; NMeA = CN[C@@H](C)C(=O)O; Sar = CNCC(=O)O

Series [1] can be described thus: Dipeptide half life on IGF1 (p-NH2-F)A19 analogs in PBS. It counts as physicochemical. The following applies: buffer. The method, then:
Accordingly, the IGF1A chain alone was determined to be a good model for the study of pro-drug half life on IGF1 B:A (Y^B16L^B17) analog peptides. […] For simplicity, prodrug half lives were determined using only the IGF1 A chain in the absence of the B chain. The half lives of each propeptide was determined as described in Example 5.

Series [2] concerns the target T1, insulin receptor (Homo sapiens, UniProt P06213). The series is described as follows: Insulin receptor phosphorylation assay, receptor transfected HEK293 cells. The format is cell-based. Further details: expressed in transfected cells; host or cells: HEK293. The following applies: for in vitro phosphorylation activity at the insulin receptor (result in words): FIGS. 22A, 22B. The method, then:
(§1) Color development was stopped 5 min later by adding 0.05 ml 1 N HCl. Absorbance at 450 nm was measured on Titertek Multiscan MCC340 (ThermoFisher, Pittsburgh, Pa.).

The target of series [3] is T2, IGF-1 receptor (Homo sapiens, UniProt P08069). Kind of series: IGF-1 receptor phosphorylation assay, receptor transfected HEK293 cells. It counts as cell-based. Further details: expressed in transfected cells; host or cells: HEK293. The following applies: Table 10. The protocol: as §1
For series [4], the target named is T2, IGF-1 receptor. The series is described as follows: IGF-1 receptor binding assay (competition, scintillation proximity). Set-up: expressed in transfected cells; plasma membrane fragments. The following applies: Table 9.
The target in series [5] is T1, insulin receptor. Kind of series: Insulin receptor binding assay (competition, scintillation proximity). Set-up: expressed in transfected cells; plasma membrane fragments.

T2 sequence (P08069 31-736 limits assumed): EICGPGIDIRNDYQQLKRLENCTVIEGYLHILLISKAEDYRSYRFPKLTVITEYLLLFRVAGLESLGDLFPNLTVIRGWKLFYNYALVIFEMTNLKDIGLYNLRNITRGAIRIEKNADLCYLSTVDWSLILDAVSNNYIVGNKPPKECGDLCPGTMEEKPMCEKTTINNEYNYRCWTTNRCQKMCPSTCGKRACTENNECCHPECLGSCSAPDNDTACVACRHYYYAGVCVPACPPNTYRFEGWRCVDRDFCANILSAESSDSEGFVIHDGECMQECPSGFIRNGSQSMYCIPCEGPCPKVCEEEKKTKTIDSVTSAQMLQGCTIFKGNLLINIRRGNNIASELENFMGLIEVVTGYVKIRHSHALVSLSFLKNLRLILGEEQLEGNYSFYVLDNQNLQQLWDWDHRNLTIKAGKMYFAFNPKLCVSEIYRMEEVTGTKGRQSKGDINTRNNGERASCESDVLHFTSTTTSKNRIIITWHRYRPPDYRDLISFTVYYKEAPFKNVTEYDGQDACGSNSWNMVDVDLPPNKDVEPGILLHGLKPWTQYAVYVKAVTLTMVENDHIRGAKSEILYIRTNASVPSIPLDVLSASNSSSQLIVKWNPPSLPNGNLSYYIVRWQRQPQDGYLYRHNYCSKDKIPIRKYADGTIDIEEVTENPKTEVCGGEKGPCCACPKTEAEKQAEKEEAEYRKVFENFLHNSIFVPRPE
T2 sequence (P08069 741-1367 partner limits assumed): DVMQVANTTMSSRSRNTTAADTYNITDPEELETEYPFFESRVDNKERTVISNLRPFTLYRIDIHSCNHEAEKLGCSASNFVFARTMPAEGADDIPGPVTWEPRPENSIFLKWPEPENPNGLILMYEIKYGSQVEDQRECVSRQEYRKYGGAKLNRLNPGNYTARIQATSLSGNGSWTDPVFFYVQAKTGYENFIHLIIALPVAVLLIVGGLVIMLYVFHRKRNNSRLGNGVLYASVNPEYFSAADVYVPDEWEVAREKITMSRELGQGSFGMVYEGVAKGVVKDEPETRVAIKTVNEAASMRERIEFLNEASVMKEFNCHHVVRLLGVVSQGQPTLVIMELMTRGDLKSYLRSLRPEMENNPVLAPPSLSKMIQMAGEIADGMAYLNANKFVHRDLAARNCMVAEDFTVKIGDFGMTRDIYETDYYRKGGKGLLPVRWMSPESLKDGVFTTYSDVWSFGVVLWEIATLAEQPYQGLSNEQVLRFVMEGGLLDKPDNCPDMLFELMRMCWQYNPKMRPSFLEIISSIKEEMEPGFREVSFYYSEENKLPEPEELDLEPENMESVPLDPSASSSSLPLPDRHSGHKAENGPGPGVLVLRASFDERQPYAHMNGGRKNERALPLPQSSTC

For `CC[C@H](C)[C@H](NC(=O)CN)C(=O)N[C@H](C(=O)N[C@@H](CC(=O)O)C(=O)N[C@@H](CCC(=O)O)C(=O)N[C@@H](C)C(=O)N[C@@H](C)C(=O)N[C@@H](Cc1ccccc1)C(=O)N[C@@H](CCCNC(=N)N)C(=O)N[C@@H](CO)C(=O)N[C@@H](C)C(=O)N[C@@H](CC(=O)O)C(=O)N[C@@H](CC(C)C)C(=O)N[C@@H](CCCNC(=N)N)C(=O)N[C@@H](CCCNC(=N)N)C(=O)N[C@@H](CC(C)C)C(=O)N[C@@H](CCC(=O)O)C(=O)N[C@@H](CCSC)C(=O)N[C@@H](Cc1ccc(NC(=O)CN(C)C(=O)C(C)(C)O)cc1)C(=O)N[C@@H](C)C(=O)N[C@@H](C)C(N)=O)C(C)C` [AiBOH Sar] (H-GIVDEAAFRSADLRRLEM[Phe(4-NH2)]([Sar-Isobutyryl(2-OH)])AA-NH2; N-terminus assumed), the half-life in series [1] (Half Life (hr)) and in series [1] (Half Life (hr) PBS) was 2.3 h each time.

As for `CC[C@H](C)[C@H](NC(=O)CN)C(=O)N[C@H](C(=O)N[C@@H](CC(=O)O)C(=O)N[C@@H](CCC(=O)O)C(=O)N[C@H]1CSSC[C@@H]2NC(=O)[C@H](CO)NC(=O)[C@H](CCCNC(=N)N)NC(=O)[C@H](Cc3ccccc3)NC(=O)[C@H](CSSC[C@H](NC(=O)[C@H](CC(C)C)NC(=O)[C@@H](NC(=O)[C@H](CCC(=O)O)NC(=O)[C@@H]3CCCN3C(=O)CN)[C@@H](C)O)C(=O)NCC(=O)N[C@@H](C)C(=O)N[C@@H](CC(=O)O)C(=O)N[C@@H](CC(C)C)C(=O)N[C@@H](C(C)C)C(=O)N[C@@H](CC(=O)O)C(=O)N[C@@H](C)C(=O)N[C@@H](CC(C)C)C(=O)N[C@@H](Cc3ccc(O)cc3)C(=O)N[C@@H](CC(C)C)C(=O)N[C@@H](C(C)C)C(=O)N[C@H](C(=O)NCC(=O)N[C@@H](CC(=O)O)C(=O)N[C@@H](CCCNC(=N)N)C(=O)NCC(=O)N[C@@H](Cc3ccccc3)C(=O)N[C@@H](Cc3ccc(O)cc3)C(N)=O)CSSC[C@@H](C(=O)N[C@@H](C)C(=O)O)NC(=O)[C@H](Cc3ccc(O)cc3)NC(=O)[C@H](CCSC)NC(=O)[C@H](CCC(=O)O)NC(=O)[C@H](CC(C)C)NC(=O)[C@H](CCCNC(=N)N)NC(=O)[C@H](CCCNC(=N)N)NC(=O)[C@H](CC(C)C)NC(=O)[C@H](CC(=O)O)NC2=O)NC1=O)C(C)C` [IGF-1 A:B(D10Y16L17) DPI A-COOH], on insulin receptor [2] (Table 10), the “Insulin Receptor % Insulin” value was 1575%. In addition, at IGF-1 receptor [3], the “IGF-1 Receptor % IGF” value stood at 111.538%. Further, on IGF-1 receptor [3] (total phosphorylation), the EC50 worked out at 0.78 nM. The “IGF-1 Receptor % IGF-1 (in test)” value at IGF-1 receptor [4] is recorded as 7.7%.

On to `CC[C@H](C)[C@H](NC(=O)CN)C(=O)N[C@H](C(=O)N[C@@H](CC(=O)O)C(=O)N[C@@H](CCC(=O)O)C(=O)N[C@H]1CSSC[C@@H]2NC(=O)[C@H](CO)NC(=O)[C@H](CCCNC(=N)N)NC(=O)[C@H](Cc3ccccc3)NC(=O)[C@H](CSSC[C@H](NC(=O)[C@H](CC(C)C)NC(=O)[C@@H](NC(=O)[C@H](CCC(=O)O)NC(=O)[C@@H]3CCCN3C(=O)CN)[C@@H](C)O)C(=O)NCC(=O)N[C@@H](C)C(=O)N[C@@H](CCC(=O)O)C(=O)N[C@@H](CC(C)C)C(=O)N[C@@H](C(C)C)C(=O)N[C@@H](CC(=O)O)C(=O)N[C@@H](C)C(=O)N[C@@H](CC(C)C)C(=O)N[C@@H](Cc3ccc(O)cc3)C(=O)N[C@@H](CC(C)C)C(=O)N[C@@H](C(C)C)C(=O)N[C@H](C(=O)NCC(=O)N[C@@H](CC(=O)O)C(=O)N[C@@H](CCCNC(=N)N)C(=O)NCC(=O)N[C@@H](Cc3ccccc3)C(=O)N[C@@H](Cc3ccc(O)cc3)C(=O)N[C@@H](Cc3ccccc3)C(=O)N[C@@H](CC(N)=O)C(=O)N[C@@H](CCCCN)C(=O)N3CCC[C@H]3C(=O)N[C@H](C(=O)N[C@@H](CCC(=O)O)C(=O)N[C@@H](CCC(=O)O)C(=O)O)[C@@H](C)O)CSSC[C@@H](C(=O)N[C@@H](C)C(N)=O)NC(=O)[C@H](Cc3ccc(O)cc3)NC(=O)[C@H](CCSC)NC(=O)[C@H](CCC(=O)O)NC(=O)[C@H](CC(C)C)NC(=O)[C@H](CCCNC(=N)N)NC(=O)[C@H](CCCNC(=N)N)NC(=O)[C@H](CC(C)C)NC(=O)[C@H](CC(=O)O)NC2=O)NC1=O)C(C)C` [IGF-1 A:B(E10 Y16L17)-E31E3 2B-COOH], for which the 50% effective concentration (EC50) at insulin receptor [2] (Insulin Receptor EC50:, total phosphorylation, Table 10) was 7 nM and 8.52 nM. The “Insulin Receptor % Insulin” value on insulin receptor [2] (Table 10) was 18.1% and 31.7%. Also, the Ratio on insulin receptor [5] (IGF-1 receptor IC50 over insulin receptor IC50) was determined as 14.3. Further, at insulin receptor [5] (Table 9), the “Insulin Receptor % insulin (in test)” value amounted to 36.5% and the “Insulin Receptor % native insulin activity (0.6 nM)” value was determined as 50.0%. Also, the “IGF-1 Receptor % IGF-1 (in test)” value on IGF-1 receptor [4] is reported as 3.0%.

Turning to `CC[C@H](C)[C@H](NC(=O)CN)C(=O)N[C@H](C(=O)N[C@@H](CC(=O)O)C(=O)N[C@@H](CCC(=O)O)C(=O)N[C@@H](C)C(=O)N[C@@H](C)C(=O)N[C@@H](Cc1ccccc1)C(=O)N[C@@H](CCCNC(=N)N)C(=O)N[C@@H](CO)C(=O)N[C@@H](C)C(=O)N[C@@H](CC(=O)O)C(=O)N[C@@H](CC(C)C)C(=O)N[C@@H](CCCNC(=N)N)C(=O)N[C@@H](CCCNC(=N)N)C(=O)N[C@@H](CC(C)C)C(=O)N[C@@H](CCC(=O)O)C(=O)N[C@@H](CCSC)C(=O)N[C@@H](Cc1ccc(NC(=O)[C@H](C)N(C)C(=O)[C@@H](N)CCCCNC(C)=O)cc1)C(=O)N[C@@H](C)C(=O)N[C@@H](C)C(N)=O)C(C)C` [K(acetyl) N-methyl Ala] (H-GIVDEAAFRSADLRRLEM[Phe(4-NH2)]([NMeA-εLys-Ac])AA-NH2; N-terminus assumed), the half-life in series [1] (Half Life (hr)) and in series [1] (Half Life (hr) PBS) was 23.6 h throughout.

As for `CC[C@H](C)[C@H](NC(=O)CN)C(=O)N[C@H](C(=O)N[C@@H](CC(=O)O)C(=O)N[C@@H](CCC(=O)O)C(=O)N[C@@H](C)C(=O)N[C@@H](C)C(=O)N[C@@H](Cc1ccccc1)C(=O)N[C@@H](CCCNC(=N)N)C(=O)N[C@@H](CO)C(=O)N[C@@H](C)C(=O)N[C@@H](CC(=O)O)C(=O)N[C@@H](CC(C)C)C(=O)N[C@@H](CCCNC(=N)N)C(=O)N[C@@H](CCCNC(=N)N)C(=O)N[C@@H](CC(C)C)C(=O)N[C@@H](CCC(=O)O)C(=O)N[C@@H](CCSC)C(=O)N[C@@H](Cc1ccc(NC(=O)[C@H](C)N(C)C(=O)[C@H](N)CCCCNC(C)=O)cc1)C(=O)N[C@@H](C)C(=O)N[C@@H](C)C(N)=O)C(C)C` [dK(acetyl) N-methyl Ala] (H-GIVDEAAFRSADLRRLEM[Phe(4-NH2)]([NMeA-d(εLys)-Ac])AA-NH2; N-terminus assumed), the half-life in series [1] (Half Life (hr)) and in series [1] (Half Life (hr) PBS) was 35.3 h throughout.

With `CC[C@H](C)[C@H](NC(=O)CN)C(=O)N[C@H](C(=O)N[C@@H](CC(=O)O)C(=O)N[C@@H](CCC(=O)O)C(=O)N[C@@H](C)C(=O)N[C@@H](C)C(=O)N[C@@H](Cc1ccccc1)C(=O)N[C@@H](CCCNC(=N)N)C(=O)N[C@@H](CO)C(=O)N[C@@H](C)C(=O)N[C@@H](CC(=O)O)C(=O)N[C@@H](CC(C)C)C(=O)N[C@@H](CCCNC(=N)N)C(=O)N[C@@H](CCCNC(=N)N)C(=O)N[C@@H](CC(C)C)C(=O)N[C@@H](CCC(=O)O)C(=O)N[C@@H](CCSC)C(=O)N[C@@H](Cc1ccc(NC(=O)CN(C)C(=O)[C@H](N)CCCCNC(C)=O)cc1)C(=O)N[C@@H](C)C(=O)N[C@@H](C)C(N)=O)C(C)C` [dK(acetyl) Sar] (H-GIVDEAAFRSADLRRLEM[Phe(4-NH2)]([Sar-d(εLys)-Ac])AA-NH2; N-terminus assumed), the half-life in series [1] (Half Life (hr)) is 16.3 h; in series [1] (Half Life (hr) PBS) it was 17.2 h.

B1: DP20 CTPC^0: CTP peptide linked to native proinsulin C peptide as linking peptide (SEQ ID NO: 73) (protein, listed as Homo sapiens)
chain: GEEEEEKGPEHLCGAHLVDALYLVCGDRGFYSSSSRAPPPSLPSPSRLPGPSDTPILPQKRREAEDLQVGQVELGGGPGAGSLQPLALEGSLQRKGIVDECCHRSCDLRRLENYCN
As to B1, the “in vitro phosphorylation activity at the insulin receptor (result in words)” value (“in vitro phosphorylation activity” below) with insulin receptor [2] is on record as “appears more potent than DP20 C^0CTP”.

B2: DP20 2CTP: two end to end linked CTP peptides as the linking peptide (SEQ ID NO: 75) (protein, listed as Homo sapiens)
chain: GEEEEEKGPEHLCGAHLVDALYLVCGDRGFYSSSSRAPPPSLPSPSRLPGPSDTPILPQKSSSSRAPPPSLPSPSRLPGPSDTPILPQKGIVDECCHRSCDLRRLENYCN
As to B2, the “in vitro phosphorylation activity” value with insulin receptor [2] was “appears to be active as an insulin agonist”.

B3: DP20 C^0CTP: native proinsulin C peptide linked to a CTP peptide as linking peptide (SEQ ID NO: 74) (protein, listed as Homo sapiens)
chain: GEEEEEKGPEHLCGAHLVDALYLVCGDRGFYRREAEDLQVGQVELGGGPGAGSLQPLALEGSLQRKSSSSRAPPPSLPSPSRLPGPSDTPILPQKGIVDECCHRSCDLRRLENYCN
Consider B3, for which the “in vitro phosphorylation activity” value in the series with insulin receptor [2] was “appear to have activity at the insulin receptor”.
